Test results: ChEMBL document CHEMBL1221378, “Synthesis of cholestane glycosides bearing OSW-1 disaccharide or its 1-->4-linked analogue and their antitumor activities” (Bioorg Med Chem Lett, 2010)

Columns and labels:
Assay type in all cases: functional, cell-based
[1] = test system: A549; test: Cytotoxicity against human A549 cells after 72 hrs by MTT assay; conditions: A549, 72 h
[2] = test system: A2780; test: Cytotoxicity against human A2780 cells after 72 hrs by MTT assay; conditions: A2780, 72 h
[3] = test system: Bel-7402; test: Cytotoxicity against human Bel7402 cells after 72 hrs by MTT assay; conditions: Bel-7402, 72 h
[4] = test system: HCT-8; test: Cytotoxicity against human HCT8 cells after 72 hrs by MTT assay; conditions: HCT-8, 72 h
[5] = test system: BGC-823; test: Cytotoxicity against human BGC823 cells after 72 hrs by MTT assay; conditions: BGC-823, 72 h

SMILES	IC50 [1]	IC50 [2]	IC50 [3]	IC50 [4]	IC50 [5]
COc1ccc(C(=O)O[C@H]2[C@H](O[C@@H]3[C@@H](OC(C)=O)[C@H](O[C@H]4C[C@H]5[C@@H]6CC=C7C[C@@H](O)CC[C@]7(C)[C@H]6CC[C@]5(C)[C@H]4[C@H](C)C(=O)CC[C@@H](C)CO)OC[C@H]3O)OC[C@@H](O)[C@@H]2O)cc1	46 nM	73 nM	39 nM	23 nM	13 nM
COc1ccc(C(=O)O[C@H]2[C@H](O[C@@H]3CO[C@@H](O[C@H]4C[C@H]5[C@@H]6CC=C7C[C@@H](O)CC[C@]7(C)[C@H]6CC[C@]5(C)[C@H]4[C@H](C)C(=O)CC[C@@H](C)CO)[C@H](OC(C)=O)[C@H]3O)OC[C@@H](O)[C@@H]2O)cc1	> 10000 nM	> 10000 nM	> 10000 nM	> 10000 nM	> 10000 nM
COc1ccc(C(=O)O[C@H]2[C@H](O[C@@H]3CO[C@@H](O[C@@H](CC[C@@H](C)CO)[C@@H](C)[C@H]4[C@@H](O[C@@H]5OC[C@@H](O[C@@H]6OC[C@@H](O)[C@H](O)[C@H]6OC(=O)c6ccc(OC)cc6)[C@H](O)[C@H]5OC(C)=O)C[C@H]5[C@@H]6CC=C7C[C@@H](O)CC[C@]7(C)[C@H]6CC[C@]45C)[C@H](OC(C)=O)[C@H]3O)OC[C@@H](O)[C@@H]2O)cc1	> 10000 nM	> 10000 nM	> 10000 nM	> 10000 nM	> 10000 nM
CC(=O)O[C@H]1C(=O)[C@@]2(C)[C@H]([C@H](OC(=O)c3ccccc3)[C@]3(O)C[C@H](OC(=O)[C@H](O)[C@@H](NC(=O)c4ccccc4)c4ccccc4)C(C)=C1C3(C)C)[C@]1(OC(C)=O)CO[C@@H]1C[C@@H]2O [PACLITAXEL]	16 nM	< 1 nM	60 nM	51 nM	< 1 nM
